The text below walks through data of the METLIN SMRT retention time set (Domingo-Almenara et al. 2019).

Each structure is given as a SMILES string.

A short description of this series: gradient 5% acetonitrile 3 min, to 50% in 2 min, to 85% in 15 min, held 3 min, 100 µL/min. To be noted: column: Zorbax Extend-C18 2.1 x 50 mm; eluents: water / acetonitrile, 0.1% formic acid. The gist of the method: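 Mixtures of ~100 pure standards were chromatographed on a Zorbax Extend-C18 column (2.1 × 50 mm, 1.8 μm) at 100 μL/min using water and acetonitrile, each with 0.1% formic acid. Detection used a quadrupole time-of-flight mass spectrometer in positive and negative ionization mode, and data collection spanned 3 months. Retention time was obtained from adduct peaks picked computationally and each checked manually.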
Regarding `CCSc1nc2ccc(NS(=O)(=O)c3ccc(F)c(C)c3)cc2s1`, the RP-LC retention time worked out at 1060 s.
For `COCCc1noc([C@@H]2CN(Cc3cccc(Cl)c3)C[C@H]2CO)n1` the value was 609 s; for `O=C(NCc1ccccn1)c1cn(-c2cc(N3CCOCC3)ncn2)cn1`, 581 s; for `Cn1c(C(=O)N2CCN(c3cccc(Cl)c3)CC2)cc2c(=O)oc3ccccc3c21`, 1030 s.
`COc1ccc(NC(=O)N2CCOc3ccc(C)cc32)cc1OC` had an RP-LC retention time of 827 s.
In turn, `COC(=O)C1=CCCCCC(N2CCOCC2)=C1C(=O)OC` gave an RP-LC retention time of 684 s.
With `COc1ccc(S(=O)(=O)NCCS(=O)(=O)N2CCN(c3ccccc3)CC2)cc1` the figure was 849 s; with `CS(=O)(=O)c1ccc(Nc2nc(C(=O)NCC3CCCO3)cs2)cc1` (centres undefined), 636 s; with `COc1cccc(C(=O)N2CCc3c(c(-c4nc(C5CC5)no4)nn3C)C2)c1`, 800 s.
For `Cn1cc(-c2ccncc2)cc1C(=O)NCc1ccccc1Br` the value was 655 s; for `O=C(c1ccc(Br)o1)N1CCc2nc(-c3ccc(Cl)cc3)ncc2C1`, 1100 s; for `CCOC(=O)c1cc(S(=O)(=O)N2CCCC2C(=O)NCCC2=CCCCC2)cn1C` (centres undefined), 985 s.
With `O=C(CSc1ccc(NC(=O)c2cccs2)nn1)Nc1nc2ccccc2s1` the figure was 840 s; with `O=S(=O)(c1cccc(-c2nnc(-c3ccc(Cl)cc3)o2)c1)N1CCCC1`, 1050 s; with `COc1ccccc1Nc1nc(-c2ccccc2)cs1`, 1150 s.
Regarding `CC(C)Cc1nc(-c2ccccc2)oc1CC(=O)NCc1cccc(Cl)c1`, the RP-LC retention time stood at 1090 s.
For `Cc1ccc2nc(NC(=O)Cc3csc4nc(-c5ccc(C)c(C)c5)cn34)sc2c1` the value was 953 s; for `COc1ccc(-n2c(=O)n(C)c(=O)c3cc(C(=O)NCc4ccc(F)cc4)cnc32)cc1`, 849 s.
With `C#C[C@]1(O)CCC2C3CCC4=CC(=O)CCC4C3C(=C)CC21CC` (some centres undefined) the figure was 991 s; with `O=C(NCC1CCCCC1)C1CCN(C(=O)c2ncn3c2COC(c2ccccc2)C3)CC1` (centres undefined), 802 s.
For `COC(=O)c1ccccc1Nc1c(-c2ccccc2)nc2cnc(Br)cn12` the value was 1090 s; for `O=C(CCC1CCCN(c2cc(NC3CC3)ncn2)C1)NCc1cccnc1` (centres undefined), 560 s; for `CCc1nc(-c2cc(S(=O)(=O)N3CCC(C(=O)N4CCN(CC)CC4)CC3)c(C)s2)no1`, 673 s.
On to `O=C(COc1ccc(Cl)cc1Cl)Nc1ccc2c(c1)N(C(=O)C1CC1)CC2`, for which the RP-LC retention time came out at 987 s.
In turn, `COc1ccc(Nc2nc(-c3nnn(-c4ccc(Br)cc4F)c3C)ns2)cc1` showed an RP-LC retention time of 1080 s.
With `Cc1cc(N2CCN(C(=O)Cc3cccc(F)c3)CC2)nc2nncn12` the figure was 593 s; with `O=C(NCCN1CCOCC1)c1ccc2ccnc(N3CCN(C(=O)c4ccco4)CC3)c2c1`, 567 s.
The molecule `Cn1nc(CNC(=O)CNC(=O)Cc2ccc(Cl)cc2)c2ccccc21` had an RP-LC retention time of 742 s.
With `Cn1cc(CCN2CCC(C(=O)N3CCCCCC3)CC2)c2cccnc21` the figure was 595 s; with `COc1ccc(N2C=C(C(=O)N3CCOCC3)S(=O)(=O)c3ccc(F)cc32)cc1`, 778 s.
Molecule `CCCCN(CCCNC(=O)C1CCN(S(=O)(=O)CC)CC1)c1ccccc1` returned an RP-LC retention time of 645 s.
With `CCn1cc(S(=O)(=O)NCc2ccccc2)c2cccnc21` the figure was 804 s; with `CCN1c2ccc(C)cc2C(=O)NC12CCN(C(=O)c1ccccc1F)CC2`, 806 s; with `COc1ccc(-c2nc3cnccn3c2Nc2ccc(C(N)=O)cc2)cc1`, 612 s.
For `N#Cc1ccsc1NC(=O)c1ccc(S(=O)(=O)N2CCOCC2)cc1` the value was 749 s; for `CCn1c(=O)c(N2CCC(NC(=O)Nc3ccccc3Cl)CC2)nc2ccccc21`, 1010 s.
For `CC(CCNC(=O)c1ccc(NC(=O)C2=CSCCO2)cc1)N1CCCC1` (centres undefined) the value was 600 s.
Consider `CCc1cccc(NS(=O)(=O)c2cn(C(C)C)c3ncccc23)c1`, for which the RP-LC retention time worked out at 946 s.
With `Cc1noc(C)c1S(=O)(=O)N1CCC(c2nnc(-c3ccco3)o2)CC1` the figure was 756 s; with `CCCN(C)C(=O)c1c(C)oc2ccn(Cc3ccc(F)cc3)c(=O)c12`, 761 s.
For `COc1ccccc1CNS(=O)(=O)c1ccccc1-c1nc(-c2ccc(F)cc2)no1` the value was 1210 s; for `O=C(CCn1ccc2cc(S(=O)(=O)N3CCCCCC3)ccc21)N1CCN(c2ccccn2)CC1`, 710 s; for `CC1CCN(C(=O)c2cc(S(=O)(=O)N3CCC(C(=O)N4CCCCC4)CC3)cn2C)CC1`, 796 s.
With `O=C(CC1CCN(C(=O)c2cc3cc(Cl)ccc3[nH]2)CC1)N1CCN(c2ccccn2)CC1` the figure was 669 s.
Consider `Cc1ccc(NC(=O)C2CCCN2S(=O)(=O)c2cc3c(cc2C)NC(=O)C(C)O3)cc1` (centres undefined), for which the RP-LC retention time turned out to be 794 s.
For `Fc1ccc(OCc2nn3c(CSc4ccccc4)nnc3s2)cc1` the value was 966 s.
For `COc1ccc(Cl)cc1C(=O)NC1(c2nc(C)no2)CCCCC1` the value was 1010 s.
With `O=C1COc2ccc(-c3csc(NC(=O)c4ccco4)n3)cc2N1` the figure was 741 s; with `CCn1nc(CNC(=O)CSc2ccncc2)c2ccccc21`, 598 s; with `CCOC(=O)CCNC(=O)NCC1CC(=O)N(c2ccc(F)cc2)C1` (centres undefined), 629 s.
In turn, `CCOc1ccc(Cc2nc(-c3ccc4c(c3)N(CC)C(=O)CO4)no2)cc1OCC` had an RP-LC retention time of 1070 s.
For `CC(C)Cc1cc(-c2nn3c(COc4ccc(F)cc4)nnc3s2)n[nH]1` the value was 936 s; for `COC(=O)c1ccc2c(=O)n(-c3cccc(OC)c3)c(N3CCOCC3)nc2c1`, 887 s; for `NS(=O)(=O)c1cccnc1Nc1ccc(Cl)cc1`, 863 s.
For `COc1ccc(-c2nc3cnccn3c2Nc2ccc(Cl)cc2)cc1OC` the value was 830 s; for `CN(CCc1noc(COc2ccc(Cl)cc2)n1)C(=O)NCCc1ccccc1`, 965 s; for `CCN(CC)S(=O)(=O)c1ccc2c(c1)CC(C(=O)NCCc1ccc(C)cc1)N2C(C)=O` (centres undefined), 842 s.
With `O=C(Nc1ccc(F)cc1)C1CCN(S(=O)(=O)c2cc(-c3noc(C4CC4)n3)cs2)CC1` the figure was 1010 s; with `O=C(c1ccco1)N1CCN(c2ccc(=O)n(-c3ccccc3)n2)CC1`, 701 s.
In turn, `Cc1ccc(C)c(C(=O)Nc2cnn(-c3ncc(N(C)C)cn3)c2)c1` gave an RP-LC retention time of 788 s.
For `Cc1ccc(-c2cc3n(n2)CCCN(C(=O)c2cnccn2)C3)cc1` the value was 766 s.
For `COc1ccccc1CNS(=O)(=O)c1cc2c(s1)CCN(C(=O)C1CCC1)C2` the value was 877 s; for `COc1cc(C(=O)Nc2nc3c(s2)Cc2c(Br)ccc(OC)c2-3)cc(OC)c1OC`, 1170 s.
For `COC(=O)C1=C(C)NC(=O)NC1c1cn(-c2ccccc2)nc1-c1ccc(Cl)cc1` (centres undefined) the value was 784 s; for `Nc1c(C(=O)Nc2nc(-c3ccccc3)cs2)sc2nc3c(cc12)CCCCC3`, 1170 s.
For `COc1nn(C)cc1-c1nnc(SCC(=O)NCc2ccc(F)cc2)n1C`, the RP-LC retention time came out at 594 s.
For `Cc1cc(N2CCC(NC(=O)Nc3cccc(F)c3C)C2=O)ccc1F` (centres undefined), the RP-LC retention time was 904 s.
The molecule `CNC(=O)N1CCCC(c2cccc(C(=O)NCc3ccc(F)cc3F)c2)C1` (centres undefined) registered an RP-LC retention time of 775 s.
Turning to `CCNS(=O)(=O)c1ccc(-c2c(C)noc2C)cc1`, the RP-LC retention time worked out at 762 s.
With `C=CCc1ccccc1OCC(O)CN1CCC(C)CC1` (centres undefined) the figure was 588 s.
For `CC(C)c1noc(-c2cc(=O)n(CC(=O)Nc3cccc(Cl)c3)c3ccccc23)n1` the value was 1070 s.
As for `COCCN1C(=O)c2cc(-c3ccccc3)nn2CC1(C)C(=O)NCc1ccccc1` (centres undefined), the RP-LC retention time was 842 s.
With `O=C(Cn1nc2c(c1NC(=O)c1c(F)cccc1Cl)CSC2)NCc1ccco1` the figure was 750 s; with `COc1ccc(-c2csc(NC(=O)c3sc(COc4ccc(Cl)c(C)c4)nc3C)n2)cc1`, 1320 s.
With `O=C(NCCc1c[nH]c2ccccc12)C1CCCN1c1nnc(N2CCCC2=O)s1` (centres undefined) the figure was 690 s; with `Cc1cc(NC(=O)Cn2c(C)cc(-c3nnc(C4CCC4)o3)c2C)ccc1F`, 934 s; with `CCCCn1c(=O)c2ccccc2n(Cc2nc(-c3cccc(C(F)(F)F)c3)no2)c1=O`, 1240 s.
With `O=S(=O)(c1ccc(OC(F)(F)F)cc1)N1CCC(c2nnc(C(F)(F)F)o2)CC1` the figure was 1000 s; with `Cc1sc(NC(=O)C2CC2)nc1-c1ccc2c(c1)N(C)C(=O)CO2`, 811 s.
